Experimental data reported in ChEMBL document CHEMBL1240360, “TMC278, a next-generation nonnucleoside reverse transcriptase inhibitor (NNRTI), active against wild-type and NNRTI-resistant HIV-1” (Antimicrob Agents Chemother, 2010).

Legend:
[1] = tested on: Human immunodeficiency virus 1; experiment: Antiviral activity against Human immunodeficiency virus 1 group M subtype AE assessed as days to viral replication breakthrough at 10 nM by cell based assay; format: functional
[2] = tested on: Human immunodeficiency virus 1; experiment: Antiviral activity against Human immunodeficiency virus 1 group M subtype AG assessed as days to viral replication breakthrough at 10 nM by cell based assay; format: functional
[3] = tested on: Human immunodeficiency virus 1; experiment: Antiviral activity against Human immunodeficiency virus 1 group M subtype B assessed as days to viral replication breakthrough at 10 nM by cell based assay; format: functional
[4] = tested on: Human immunodeficiency virus 1; experiment: Antiviral activity against Human immunodeficiency virus 1 group M subtype BG assessed as days to viral replication breakthrough at 10 nM by cell based assay; format: functional
[5] = tested on: Human immunodeficiency virus 1; experiment: Antiviral activity against Human immunodeficiency virus 1 group M subtype C assessed as days to viral replication breakthrough at 10 nM by cell based assay; format: functional
[6] = tested on: Human immunodeficiency virus 1; experiment: Antiviral activity against Human immunodeficiency virus 1 group M subtype D assessed as days to viral replication breakthrough at 10 nM by cell based assay; format: functional
[7] = tested on: Human immunodeficiency virus 1; experiment: Antiviral activity against Human immunodeficiency virus 1 group M subtype F1 assessed as days to viral replication breakthrough at 10 nM by cell based assay; format: functional
[8] = tested on: Human immunodeficiency virus 1; experiment: Antiviral activity against Human immunodeficiency virus 1 group M subtype G assessed as days to viral replication breakthrough at 10 nM by cell based assay; format: functional
[9] = tested on: Human immunodeficiency virus 1; experiment: Antiviral activity against Human immunodeficiency virus 1 group M subtype H assessed as days to viral replication breakthrough at 10 nM by cell based assay; format: functional
[10] = tested on: Human immunodeficiency virus 1; experiment: Antiviral activity against Human immunodeficiency virus 1 group M subtype A1 assessed as days to viral replication breakthrough at 40 nM by cell based assay; format: functional
[11] = tested on: Human immunodeficiency virus 1; experiment: Antiviral activity against Human immunodeficiency virus 1 group M subtype AE assessed as days to viral replication breakthrough at 40 nM by cell based assay; format: functional
[12] = tested on: Human immunodeficiency virus 1; experiment: Antiviral activity against Human immunodeficiency virus 1 group M subtype AG assessed as days to viral replication breakthrough at 40 nM by cell based assay; format: functional
[13] = tested on: Human immunodeficiency virus 1; experiment: Antiviral activity against Human immunodeficiency virus 1 group M subtype B assessed as days to viral replication breakthrough at 40 nM by cell based assay; format: functional
[14] = tested on: Human immunodeficiency virus 1; experiment: Antiviral activity against Human immunodeficiency virus 1 group M subtype BG assessed as days to viral replication breakthrough at 40 nM by cell based assay; format: functional
[15] = tested on: Human immunodeficiency virus 1; experiment: Antiviral activity against Human immunodeficiency virus 1 group M subtype C assessed as days to viral replication breakthrough at 40 nM by cell based assay; format: functional
[16] = tested on: Human immunodeficiency virus 1; experiment: Antiviral activity against Human immunodeficiency virus 1 group M subtype D assessed as days to viral replication breakthrough at 40 nM by cell based assay; format: functional
[17] = tested on: Human immunodeficiency virus 1; experiment: Antiviral activity against Human immunodeficiency virus 1 group M subtype F1 assessed as days to viral replication breakthrough at 40 nM by cell based assay; format: functional
[18] = tested on: Human immunodeficiency virus 1; experiment: Antiviral activity against Human immunodeficiency virus 1 group M subtype G assessed as days to viral replication breakthrough at 40 nM by cell based assay; format: functional
[19] = tested on: Human immunodeficiency virus 1; experiment: Antiviral activity against Human immunodeficiency virus 1 group M subtype H assessed as days to viral replication breakthrough at 40 nM by cell based assay; format: functional
[20] = tested on: Human immunodeficiency virus 1; experiment: Antiviral activity against Human immunodeficiency virus 1 group M subtype A1 assessed as days to viral replication breakthrough at 200 nM by cell based assay; format: functional
[21] = tested on: Human immunodeficiency virus 1; experiment: Antiviral activity against Human immunodeficiency virus 1 group M subtype AE assessed as days to viral replication breakthrough at 200 nM by cell based assay; format: functional
[22] = tested on: Human immunodeficiency virus 1; experiment: Antiviral activity against Human immunodeficiency virus 1 group M subtype AG assessed as days f for viral replication at 200 nM by cell based assay; format: functional
[23] = tested on: Human immunodeficiency virus 1; experiment: Antiviral activity against Human immunodeficiency virus 1 group M subtype B assessed as days viral replication at 200 nM by cell based assay; format: functional
[24] = tested on: Human immunodeficiency virus 1; experiment: Antiviral activity against Human immunodeficiency virus 1 group M subtype BG assessed as days to viral replication breakthrough at 200 nM by cell based assay; format: functional
[25] = tested on: Human immunodeficiency virus 1; experiment: Antiviral activity against Human immunodeficiency virus 1 subtype A isolate 92UG029 infected in human PBMC cells by cell based assay; details: Human immunodeficiency virus 1, subtype A isolate 92UG029, PBMC
[26] = tested on: Human immunodeficiency virus 1; experiment: Antiviral activity against Human immunodeficiency virus 1 subtype B isolate 93BR021 infected in human PBMC cells by cell based assay; details: Human immunodeficiency virus 1, subtype B isolate 93BR021, PBMC
[27] = tested on: Human immunodeficiency virus 1; experiment: Antiviral activity against Human immunodeficiency virus 1 subtype A isolate 92UG037 infected in human PBMC cells by cell based assay; details: Human immunodeficiency virus 1, subtype A isolate 92UG037, PBMC
[28] = tested on: Human immunodeficiency virus 1; experiment: Antiviral activity against Human immunodeficiency virus 1 subtype A isolate 92RW020 infected in human PBMC cells by cell based assay; details: Human immunodeficiency virus 1, subtype A isolate 92RW020, PBMC
[29] = tested on: Human immunodeficiency virus 1; experiment: Antiviral activity against Human immunodeficiency virus 1 subtype B isolate JR-CSF infected in human PBMC cells by cell based assay
[30] = tested on: Human immunodeficiency virus 1; experiment: Antiviral activity against Human immunodeficiency virus 1 subtype B isolate WEJO infected in human PBMC cells by cell based assay
[31] = tested on: Human immunodeficiency virus 1; experiment: Antiviral activity against Human immunodeficiency virus 1 subtype C isolate 92BR025 infected in human PBMC cells by cell based assay; details: Human immunodeficiency virus 1, subtype C isolate 92BR025, PBMC
[32] = tested on: Human immunodeficiency virus 1; experiment: Antiviral activity against Human immunodeficiency virus 1 subtype C isolate 93IN101 infected in human PBMC cells by cell based assay; details: Human immunodeficiency virus 1, subtype C isolate 93IN101, PBMC
[33] = tested on: Human immunodeficiency virus 1; experiment: Antiviral activity against Human immunodeficiency virus 1 subtype C isolate 93MW959 infected in human PBMC cells by cell based assay; details: Human immunodeficiency virus 1, subtype C isolate 93MW959, PBMC

- EC50 [25]: 0.44 nM
- EC50 [26]: 0.23 nM
- EC50 [27]: 0.24 nM
- EC50 [28]: 0.07 nM
- EC50 [29]: 0.51 nM
- EC50 [30]: 0.08 nM
- EC50 [31]: 0.33 nM
- EC50 [32]: 0.53 nM
- EC50 [33]: 0.11 nM
SMILES: Cc1cc(/C=C/C#N)cc(C)c1Nc1ccnc(Nc2ccc(C#N)cc2)n1 [RILPIVIRINE]
- Activity [1]: > 31 days
- Activity [2]: > 31 days
- Activity [3]: 7 days
- Activity [4]: 10 days
- Activity [5]: > 31 days
- Activity [6]: 20 days
- Activity [7]: > 31 days
- Activity [8]: > 31 days
- Activity [9]: > 31 days
- Activity [10]: > 31 days
- Activity [11]: > 31 days
- Activity [12]: > 31 days
- Activity [13]: > 31 days
- Activity [14]: 13 days
- Activity [15]: > 31 days
- Activity [16]: > 31 days
- Activity [17]: > 31 days
- Activity [18]: > 31 days
- Activity [19]: > 31 days
- Activity [20]: > 31 days
- Activity [21]: > 31 days
- Activity [22]: > 31 days
- Activity [23]: > 31 days
- Activity [24]: > 31 days
